Experimental data: patent US9492496B2, “Aminothiazoles and their uses” (Novartis AG, priority 2007, dated 2016)

tested on: prokaryotic transcription-translation (E. coli S30 extract); assay: In vitro assay for inhibition of prokaryotic transcription-translation (Promega E. coli S30 Extract System, pBESTluc luciferase readout); type: biochemical; conditions: 2 uM compound, 2 h at 37° C., luciferase luminescence
Description: In vitro assay for inhibition of prokaryotic transcription-translation [as described in the following references: 1. Zubay, G. (1973) In vitro synthesis of protein in microbial systems. Annu. Rev. Genet. 7, 267.87. 2. Zubay, G. (1980) The isolation and properties of CAP, the catabolite gene activator. Meth. Enzymol. 65, 856.77]. Antibiotic and compound dilutions: stock solutions of compound to be assayed at 2 μM are 80 μM in 40% DMSO. Stock solutions of compounds to be assayed at 10 μM are 400 μM in 40% DMSO.
Assay setup and protocol for Promega E. coli S30 Extract System
The assay is performed as follows: pipet 3.5 μl of 286 ng/μl template DNA (pBESTluc™) into assay wells. Negative control wells receive sdH2O only. Transfer 0.5 μl of 40× compound stock solution to assay wells. Positive control wells (no compound) receive 0.5 μl 40% DMSO sdH2O. Pipet 16 μl of master mix into assay wells. Incubate plate for two hours at 37° C. Rapidly chill the assay plate on ice for five minutes to stop the reaction. Add an equal volume (20 μl) of room temperature Steady-Glo® Luciferase assay reagent to all assay wells. Incubate 20 minutes and read light emitted with luminometer. Results are reported as % inhibition a 2 μM or 10 μM.

SMILES	% inh. @ 2 uM
CNC(=O)C[C@@H]1NC(=O)c2csc(n2)-c2ccc(-c3nc(N(CCCCC(=O)O)C(=O)O[C@H]4CC[C@H](C(=O)O)C[C@@H]4CCCCC(=O)O)cs3)nc2-c2csc(n2)-c2csc(n2)[C@H]([C@@H](O)c2ccccc2)NC(=O)CNC(=O)c2nc(sc2COC)C(C(C)C)NC(=O)c2nc1sc2C (stereo partly shown) [Compound 29]	2 uM = 79.6%
CNC(=O)C[C@@H]1NC(=O)c2csc(n2)-c2ccc(-c3nc(N(CCCCC(=O)O)C(=O)OCCC(CCCCC(=O)O)C(=O)O)cs3)nc2-c2csc(n2)-c2csc(n2)[C@H]([C@@H](O)c2ccccc2)NC(=O)CNC(=O)c2nc(sc2COC)C(C(C)C)NC(=O)c2nc1sc2C (stereo partly shown) [Compound 30]	2 uM = 83.93%
CNC(=O)C[C@@H]1NC(=O)c2csc(n2)-c2ccc(-c3nc(N(CCCC(CCCCCCC(=O)O)C(=O)O)C(=O)O[C@H]4CC[C@H](C(=O)O)CC4)cs3)nc2-c2csc(n2)-c2csc(n2)[C@H]([C@@H](O)c2ccccc2)NC(=O)CNC(=O)c2nc(sc2COC)C(C(C)C)NC(=O)c2nc1sc2C (stereo partly shown) [Compound 31]	2 uM = 79.4%
CNC(=O)C[C@@H]1NC(=O)c2csc(n2)-c2ccc(-c3nc(N(CCCCC(=O)O)C(=O)OCC(CCCCC(=O)O)CC(=O)O)cs3)nc2-c2csc(n2)-c2csc(n2)[C@H]([C@@H](O)c2ccccc2)NC(=O)CNC(=O)c2nc(sc2COC)C(C(C)C)NC(=O)c2nc1sc2C (stereo partly shown) [Compound 32]	2 uM = 78.0%
CNC(=O)C[C@@H]1NC(=O)c2csc(n2)-c2ccc(-c3nc(N(CCCCC(=O)O)C(=O)O[C@H]4CC[C@@](CCCCC(=O)O)(C(=O)O)CC4)cs3)nc2-c2csc(n2)-c2csc(n2)[C@H]([C@@H](O)c2ccccc2)NC(=O)CNC(=O)c2nc(sc2COC)C(C(C)C)NC(=O)c2nc1sc2C (stereo partly shown) [Compound 33]	2 uM = 46.8%
CNC(=O)C[C@@H]1NC(=O)c2csc(n2)-c2ccc(-c3nc(N(CCCCC(=O)O)C(=O)O[C@]4(CCCCC(=O)O)CC[C@@H](C(=O)O)CC4)cs3)nc2-c2csc(n2)-c2csc(n2)[C@H]([C@@H](O)c2ccccc2)NC(=O)CNC(=O)c2nc(sc2COC)C(C(C)C)NC(=O)c2nc1sc2C (stereo partly shown) [Compound 34]	2 uM = 63.1%
CNC(=O)C[C@@H]1NC(=O)c2csc(n2)-c2ccc(-c3nc(NC(=O)OCCC(CCCCC(=O)O)C(=O)O)cs3)nc2-c2csc(n2)-c2csc(n2)[C@H]([C@@H](O)c2ccccc2)NC(=O)CNC(=O)c2nc(sc2COC)C(C(C)C)NC(=O)c2nc1sc2C (stereo partly shown) [Compound 35]	2 uM = 87.0%
